Results published in patent US20240287065A1, “COMPOUND AS CDK KINASE INHIBITOR AND USE THEREOF” (TYK MEDICINES (ZHENGZHOU) , INC., priority 2021, published 2024).
Like-named read-outs stand apart in the source and are kept apart here.

Legend:
T47D cells = test: Cell proliferation inhibition assay (MTT, 7 days); assay type: cell-based; settings: 7 days incubation
Method: (§1) MCF7, T47D, OVCAR3 and HCC1806 cells were inoculated in 96-well plates at 3000, 3000, 2500, and 2000 cells/well, respectively, and cultured overnight at 37° C., 5% C02 incubator.
(§2) 1. […] Then 2.5 μl of the stock solution was dissolved in 497.5 μl of DMSO-free medium, and then a 3-fold serial gradient dilution was performed with 0.1% DMSO medium for a total of 9 concentrations, and the concentrations of the compounds after dilution were as follows: • 10000 nM, 3333.33 nM, 1111.11 nM, 370.34 nM, 123.45 nM, 41.15 nM, 13.72 nM, 4.57 nM, and 1.52 nM. • b) After fully mixing, 20 μL of compound solutions were added into cell culture plates containing 80 μL of cells respectively, with 4 replicate wells for each concentration. • c) The cells were transferred to an incubator and incubated for 7 days, and exchanged with fresh culture medium containing the same concentration of compounds when incubated to day 4. 2. MTT assay • a) The cell culture plate was taken out and 10 μL of 5 mg/ml MTT was added to the hood. • b) The cell culture plate was put back into the incubator and continued to incubate for 3 hours. • c) The cell culture plate was taken out to remove the culture medium, and 100 μL of isopropanol (0.4 mMHCl, 0.4% NP40) was added to the plate, and the plate was shaken on a shaker at room temperature for 30 minutes and read at 570 nm. 3. Data analysis
(§3) The survival rate (% Cell Survival) was calculated using the following equation:
(§4) % Cell Survival=100%×(OD_Sample−OD_LCave)/(OD_HC−OD_LCave) • OD_HC: 0.1‰ cell readings of DMSO control • OD_Sample: cell readings of compound addition • OD_LC: readings of blank medium • Analyed by Prizm: Dose-response-Inhibition Log(inhibitor) vs response (three parameters for the best fit)
(§5) IC50 (nM) values were calculated by concentration-response curve fitting.

OVCAR3 cells = test: Cell proliferation inhibition assay (MTT, 7 days); assay type: cell-based; settings: 7 days incubation
Method: as §1, §2, §3, §4, §5

HCC1806 cells = test: Cell proliferation inhibition assay (MTT, 7 days); assay type: cell-based; settings: HCC1086 [sic], 7 days incubation
Method: as §1, §2, §3, §4, §5

MCF7 cells = test: Cell proliferation inhibition assay (MTT, 7 days); assay type: cell-based; settings: 7 days incubation
Method: as §1, §2, §3, §4, §5

CDK2/CycE1 = CDK2/CycE1 (Homo sapiens, UniProt P24941); test: Enzyme activity test; assay type: biochemical;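 note: values come from the source column headed CDK2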
Method: (§6) • 1. The test compounds and pabocinib were configured into a […] solution of DMSO; • 2. 20 nL of stock solution was transferred to a 384-well plate using Echo550. DMSO was used as a blank control.
(§7) • 1. according to the following table to prepare 1.3X enzyme solution containing enzyme, substrate and cofactor; • 2. 15 μL of 1.3X enzyme solution was added to each well and the mixture was incubated for 30 min at room temperature; • 3. 5 μL of ATP solution was added to initiate the reaction. The final volume of each well was 20 μL; • 4. After incubation for 150 min at room temperature, 75 μL of termination buffer solution was added to terminate the experiment; • 5. The samples were analyzed using EZ reader.
(§8) The % inhibition was calculated using the following equation
(§9) The one treated with DMSO is the positive control (PC)
(§10) The one without enzyme is the negative control (NC)
(§11) % Inhibition=100-100*((CRPC−CRsample)/(CRPC−CRNC))

CDK4/CycD3 = CDK4/CycD3 (Homo sapiens, UniProt P11802); test: Enzyme activity test; assay type: biochemical;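 note: values come from the source column headed CDK4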
Chain of CDK4/CycD3 (P11802 whole entry, species assumed): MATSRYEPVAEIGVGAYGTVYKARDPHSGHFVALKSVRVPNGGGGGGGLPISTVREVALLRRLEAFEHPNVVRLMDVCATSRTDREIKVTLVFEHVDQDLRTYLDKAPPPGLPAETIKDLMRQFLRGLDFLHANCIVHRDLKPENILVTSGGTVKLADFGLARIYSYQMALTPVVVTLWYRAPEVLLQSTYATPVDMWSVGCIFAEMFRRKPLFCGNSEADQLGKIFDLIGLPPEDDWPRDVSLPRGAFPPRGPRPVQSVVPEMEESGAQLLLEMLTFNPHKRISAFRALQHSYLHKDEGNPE
Chain of CDK4/CycD3 (P30281 whole entry partner, species assumed): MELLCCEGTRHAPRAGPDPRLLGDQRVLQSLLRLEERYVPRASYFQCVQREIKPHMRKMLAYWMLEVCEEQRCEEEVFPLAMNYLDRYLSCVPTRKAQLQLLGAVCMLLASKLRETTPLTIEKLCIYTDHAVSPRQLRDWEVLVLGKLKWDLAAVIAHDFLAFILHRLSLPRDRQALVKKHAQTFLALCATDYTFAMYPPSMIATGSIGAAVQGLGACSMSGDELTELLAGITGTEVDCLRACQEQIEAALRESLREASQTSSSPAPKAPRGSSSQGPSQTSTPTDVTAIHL
Method: as §6, §7, §8, §9, §10, §11

CDK6/CycD1 = CDK6/CycD1 (Homo sapiens, UniProt Q00534); test: Enzyme activity test; assay type: biochemical;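 note: values come from the source column headed CDK6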
Chain of CDK6/CycD1 (Q00534 whole entry, species assumed): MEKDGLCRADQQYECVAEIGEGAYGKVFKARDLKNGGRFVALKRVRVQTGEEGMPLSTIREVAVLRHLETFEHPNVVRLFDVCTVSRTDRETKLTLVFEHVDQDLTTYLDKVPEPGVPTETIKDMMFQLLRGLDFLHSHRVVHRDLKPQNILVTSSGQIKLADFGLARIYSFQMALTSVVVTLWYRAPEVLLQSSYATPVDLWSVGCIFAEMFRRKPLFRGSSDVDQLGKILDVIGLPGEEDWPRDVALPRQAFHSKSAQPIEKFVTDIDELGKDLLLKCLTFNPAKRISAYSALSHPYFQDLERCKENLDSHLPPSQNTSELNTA
Chain of CDK6/CycD1 (P24385 whole entry partner, species assumed): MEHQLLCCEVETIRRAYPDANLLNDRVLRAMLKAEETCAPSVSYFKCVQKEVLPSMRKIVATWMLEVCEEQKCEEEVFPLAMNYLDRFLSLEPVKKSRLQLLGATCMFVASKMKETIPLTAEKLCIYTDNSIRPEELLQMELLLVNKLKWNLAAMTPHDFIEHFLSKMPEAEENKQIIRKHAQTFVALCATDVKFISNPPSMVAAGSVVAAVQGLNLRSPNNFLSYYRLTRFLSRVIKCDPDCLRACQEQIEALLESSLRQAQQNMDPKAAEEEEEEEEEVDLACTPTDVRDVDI
Method: as §6, §7, §8, §9, §10, §11

MCF-7-Palbo-R cells = test: MCF-7-Palbo-R cell antiproliferative assay (BrdU ELISA); assay type: cell-based; settings: for IC50: 72 hours, BrdU; for Bottom(%): bottom of inhibition curve; for Top(%): top of inhibition curve
Method: 1. Experimental Materials • MCF-7/palbo-R • EMEM medium (ATCC, 30-2003); DMEM/F12 medium (Gibco-1 1330-032) • Fetal bovine serum (cellmax-SA21 1.02) • DMSO (SIGMA, D2650) • BrdU ELISA cell proliferation assay kit (Roche, 11647229001) • ELISA (e.g. MD-SpectraMax ID5 or EnVision)
2. Experimental protocol • 1. Cell spreading • 1) Cells were counted, the concentration of cell suspension was adjusted • 2) The MCF7/Palbo-R cell suspension was seeded in 96-well plates at […] volume to make the number of cells per well is 4000-5000; • 3) Blank control group was added with 90 μl of culture medium; • 2. […] A 3-fold serial gradient dilution was performed with 0.1% DMSO medium for a total of 9 concentrations, and the concentrations of the compounds after dilution were as follows: • 10000 nM, 3333.33 nM, 1111.11 nM, 370.34 nM, 123.45 nM, 41.15 nM, 13.72 nM, 4.57 nM, and 1.52 nM. • b) After 72 hours of compound treatment. • 1) A 10 mM of Brdu stock solution was diluted with RPMI medium and added to a 96-well plate at 20 uL/well and shaken at 350 rpm for 10 minutes. • 2) The 96 well plate was placed back into the incubator for 1 or 2 hours. • 3) After the medium was removed from the 96-well plate, 200 ul/well of Fixation/Denaturation solution was added and incubated for 30 minutes at room temperature. • 4) The fixation solution was removed and 100 ul of peroxidase-coupled anti-Brdu antibody solution (antibody dilution prepared at 1:100 dilution) was added, • and incubated at 350 rpm for 1 hour at room temperature. • 6) The 96-well plate was washed three times with 300 ul/well of PBS. • 8) 100ul of peroxidase substrate solution was added and shaken at 350 rpm for about 10-20 minutes at room temperature, • until the DMSO-treated cell control wells turn a medium blue color. If a color is too dark, it will cause the absorbance value to out of the reading range. • 9) The reaction was terminated by the addition of 25 ul of 1 M sulfuric acid. Shake to ensure uniform color. • 10) The absorbance at 450 nm was recorded. • 3. Data analysis • The inhibition rate is calculated using the following equation:
IR (%)=(1−(RLU compound−RLU blank)/(RLU control−RLU blank))*100%.

xMCF-7/Palbo-R cells = test: xMCF-7/Palbo-R xenograft tumor model; assay type: in vivo; settings: 20 mg/kg, oral tube feeding twice daily for 20 days, Balb/c nude female mice
Method: To establish a xenograft tumor model, 1×10^7 xMCF-7/Palbo-R cells were suspended in 0.2 mL of a mixture of Matrigel and […] (1:1) and injected subcutaneously into 6-8 week-old Balb/c nube female mice. Tumor growth was observed periodically, and the volume (volume=½×(length×width 2)) was measured with a vernier caliper. When the tumors grew to an average volume of 100˜150 mm3, the drug was administered to mice (12 days after inoculation) in random groups according to the tumor size and their body weights. […] The drugs were administered by oral tube feeding twice daily for 20 days. Tumor volume and animal weight were measured twice a week and continued until the end of the experiment. Dosing day was defined as day 0. Measurement time points were day 0, day 3, day 7, day 10, day 14, day 17 and day 20. All mice were euthanized by cervical dislocation. At the end of the experiment, tumors were collected and weighed to calculate TGI values (see Table 4).

OVCAR-3 cells = test: OVCAR-3 xenograft tumor model; assay type: in vivo; settings: BALB/c nude female mice
Method: OVCAR-3 cells were cultured in RPMI1640 culture medium containing 20% fetal bovine serum and 10 μg/mL Insalin. Cells in the exponential growth phase were collected, and the cells were resuspended in the mixed solution of PBS and Matrigel in a ratio of 1:1 to a suitable concentration for subcutaneous tumor inoculation in nude mice.
To establish a xenograft tumor model, 1×10^7 OVCAR-3 cells were suspended in 0.2 mL of a mixture of PBS and Matrigel (1:1) and injected subcutaneously into 6-8-week-old BALB/c nube female mice on the right back. Tumor growth was observed periodically, and the volume (volume=½[…](length×width 2)) was measured with a vernier caliper. When the tumors grew to an average volume of 100˜150 mm^3, the drug was administered to mice (27 days after inoculation) in random groups according to the tumor size and their body weights. […] Tumor volume and animal weight were measured twice a week and continued until the end of the experiment. Dosing day was defined as day 0. Measurement time points were day 0, day 3, day 7, day 10, day 14, day 17 and day 21. All mice were euthanized by cervical dislocation. At the end of the experiment, tumors were collected and weighed to calculate TGI values (see Table 5).

MV4-11 cells = test: MV4-11 xenograft tumor model; assay type: in vivo; settings: 20 mg/kg, oral tube feeding once a day for 15 days, NOD/SCID mice
Method: MV-4-11 cells were cultured in IMEM culture medium containing 10% fetal bovine serum. Cells in the exponential growth phase were collected, and the cells were resuspended in PBS to a suitable concentration for subcutaneous tumor inoculation in nude mice.
To establish a xenograft tumor model, 5×10^6 MV4-11 cells were suspended in 0.1 mL of a 1:1 mixture of PBS and Matrigel and injected subcutaneously into the right dorsal side of 6-8-week-old NOD/SCID mice. Tumor growth was observed periodically, and the volume (volume=½×(length×width^2)) was measured with a vernier caliper. When the tumors grew to an average volume of 100˜150 mm^3, the drug was administered to mice (12 days after inoculation) in random groups according to the tumor size and their body weights. […] Among them, the mice in the Vehicle, 10 mg/kg TY-3301, 10 mg/kg C3, and 20 mg/kg C3 groups were administered twice a day by oral tube feeding for 15 days, and the mice in the 20 mg/kg TY-3300 group were administered once a day by oral tube feeding for 15 days. Tumor volume and animal weight were measured twice a week and continued until the end of the experiment. Dosing day was defined as day 0. Measurement time points were day 0, day 3, day 7, day 10, day 14, and day 15. All mice were euthanized by cervical dislocation. At the end of the experiment, tumors were collected and weighed to calculate TGI values (see Table 6).

| Molecule | IC50 (T47D cells; Homo sapiens, 168 h) | IC50 (OVCAR3 cells; Homo sapiens, OVCAR-3, 168 h) | IC50 (HCC1806 cells; Homo sapiens, HCC1806, 168 h) | IC50 (MCF7 cells; Homo sapiens, 168 h) | IC50 (CDK2/CycE1) | IC50 (CDK4/CycD3) | IC50 (CDK6/CycD1) | IC50 (MCF-7-Palbo-R cells; read-out: AbsIC50) | IC50 (MCF-7-Palbo-R cells; read-out: ReIC50) | Bottom(%) (MCF-7-Palbo-R cells) | Top(%) (MCF-7-Palbo-R cells) | TGI (xMCF-7/Palbo-R cells) | TGI (OVCAR-3 cells; 30 mg/kg, oral tube feeding twice daily for 21 days) | TGI (OVCAR-3 cells; 50 mg/kg, oral tube feeding twice daily for 21 days) | IC50 (T47D cells) | IC50 (OVCAR3 cells) | IC50 (HCC1806 cells) | IC50 (MCF7 cells) | TGI (MV4-11 cells) | TGI (OVCAR-3 cells; 60 mg/kg, oral tube feeding once daily for 21 days) |
| --- | --- | --- | --- | --- | --- | --- | --- | --- | --- | --- | --- | --- | --- | --- | --- | --- | --- | --- | --- | --- |
| C[C@@]1(O)CCC[C@H]1n1c(=O)c(OC(F)F)cc2cnc(NC3CCN(S(=O)(=O)c4ccc(F)cc4)CC3)nc21 [Example 12] | ≤ 50 nM | ≤ 50 nM | ≤ 50 nM | 50 to 5200 nM | < 10 nM | < 10 nM | < 10 nM | 26 nM | 26 nM | 7.117% | 99.196% | – | – | – | – | – | – | – | – | – |
| C[C@@]1(O)CCC[C@H]1n1c(=O)c(OC(F)F)cc2cnc(NC3CCN(S(=O)(=O)c4ccccn4)CC3)nc21 [Example 27] | ≤ 50 nM | ≤ 50 nM | ≤ 50 nM | ≤ 50 nM | < 10 nM | < 10 nM | < 10 nM | – | – | – | – | 61.5% | – | – | – | – | – | – | – | – |
| [2H]C1(Nc2ncc3cc(OC(F)F)c(=O)n([C@@H]4CCC[C@@]4(C)O)c3n2)CCN(S(C)(=O)=O)CC1 [Example 29] | 50 to 5200 nM | ≤ 50 nM | ≤ 50 nM | ≤ 50 nM | < 10 nM | < 10 nM | < 10 nM | – | – | – | – | – | 69% | 74.8% | – | – | – | – | – | – |
| Palbociclib [reference compound] | – | – | – | – | – | – | – | 4010 nM | 7090 nM | −3.542% | 68.840% | – | – | – | 50 to 5200 nM | > 1000 nM | > 1000 nM | ≤ 50 nM | 39% | 27.7% |
